The target of test [1] is T1, protein phosphatase specific protein methylesterase (MEase) (Homo sapiens, UniProt Q9Y570).
T1 construct: made in house
T1 sequence (Q9Y570 1-386): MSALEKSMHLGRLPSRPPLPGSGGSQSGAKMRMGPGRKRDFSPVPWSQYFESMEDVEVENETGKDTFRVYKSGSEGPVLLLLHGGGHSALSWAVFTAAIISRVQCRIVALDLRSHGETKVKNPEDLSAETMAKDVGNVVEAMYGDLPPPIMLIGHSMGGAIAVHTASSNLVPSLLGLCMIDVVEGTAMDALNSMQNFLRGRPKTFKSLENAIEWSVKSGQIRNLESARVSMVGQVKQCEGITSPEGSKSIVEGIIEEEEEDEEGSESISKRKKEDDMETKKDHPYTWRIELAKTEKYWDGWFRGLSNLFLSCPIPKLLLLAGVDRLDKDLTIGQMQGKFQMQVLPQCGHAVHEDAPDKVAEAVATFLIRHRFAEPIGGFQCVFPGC
As to the kind of experiment: PP2A demethylation with [3H]-SAM and purified proteins (methylesterase activity). Type of test: biochemical. The following applies: purified methylated PP2A and MEase; read-out: ME (IC50). As for the experimental part: PP2A (methylated and unmethylated) were eluted with 1.6 mL of Buffer A containing 350 mM NaCl. Fractions (0.2 mL each) were collected and the radioactivity in each fraction was measured using the scintillation counter (LS 6000SE, Beckman). Fractions with highest radioactivity were containing purified methylated PP2A were pooled with a total volume of 0.6 mL-0.8 mL. Purified methylated PP2A (50 nM-100 nM) was incubated with MEase (5 nM-20 nM) in 20 μl-50 μl reaction at room temperature for 30 minutes. The reaction was terminated by adding TCA (2 μl-6 μl) to a final concentration of 10%. Released [^3H]-methanol in supernatants was counted with scintillation counter (LS 6000SE, Beckman).

The next test concerns phosphorylated Tau. As to the kind of experiment: Phosphorylated tau in vivo, weekly up to 4 weeks (PHF1 Western blot of brain). Details: species or system mice. The following applies: 0.1% by weight in feed, mouse brain. As for the experimental part: Swiss Webster mice ([…]) were fed ad libitum, either standard rodent chow (Control), or rodent chow formulated with 0.1 g Compound I-63 per 100 g chow (0.1% Compound I-63); water was changed weekly. Mice were housed at 23° C., on a 12 hour light and dark cycle, with 6 mice per cage. At weekly intervals up to 4 weeks, three and six mice from the Control and 0.1% Compound I-63 groups respectively were sacrificed by cervical dislocation, brains removed, snap-frozen in liquid nitrogen, and were stored at −80° C. Brains were homogenized in 350 pi of buffer containing 20 mM MOPS-Na, pH 7.2, 1 mM EDTA/DTT, 0.5 mg/L of aprotinin, leupeptin and pepstatin, 100 nM okadaic acid, and clarified by centrifugation (14,000 rpm, 10 min, 4° C.). Supernatant protein concentrations were measured by the Bradford method, 4 volumes of the supernatant and 1 volume of 5×SDS sample buffer were mixed and boiled for 2 minutes. 40 pg of the boiled homogenate were loaded on 12% polyacrylamide gels, and transferred to nitrocellulose membranes. Membranes are blocked in 5% BSA+TBST for 1 hour at room temperature, and incubated overnight at 4° C. with the following primary antibodies at the indicated dilutions: PHF1 mAb (recognizes phospho-Serine 396/404) at 1:2000, Tau-5 (Millipore; pan-tau mAb) at 1:10,000, and anti-GAPDH (Sigma mAb; used as loading control) at 1:50,000. Protein bands were detected with the ECL Plus reagent (GE Healthcare) and blots were exposed to Kodak XOmat film. Densitometric analyses were performed with ImageJ software. For relative phospho-tau levels of the Compound I-63-treated animals, the ratio of GAPDH-normalized phospho-tau to GAPDH-normalized total tau was further normalized to the corresponding ratios for the control group of mice. Error bars represent the standard error of the means.

The test system of test [2] is Thyl-alpha-synuclein transgenic mice. As to the kind of experiment: Locomotor tests (open field, rota-rod) in alpha-synuclein over-expressing mice. Type of test: in vivo. The following applies: 0.001% diet (p=0.068). Here is the method: Transgenic mice over-expressing the full length human alpha-synuclein have been described previously, and are excellent models for sensorimotor tests that are sensitive to alterations in the nigrostriatal dopaminergic system [Fleming, S. M. et. al, J. Neurosci. 24, 9434-40, (2004)].
Thyl-alpha-synuclein transgenic mice (9-12 weeks old) and age-matched wild type mice were housed in clear plastic cages in a temperature-, and humidity-controlled environment with a 12 hour-light/dark cycle (light switched on at 7 a.m.), and were maintained on an ad libitum diet of lab chow and water. The animal feeds used were either normal (Control) or formulated with Compound I-63 at 0.001% and 0.1%. […]
Locomotor activity was assessed in an open field paradigm by a Digiscan activity monitor utilizing a grid of infrared beams that record the location and path of the animal (horizontal activity) as well as the number of rearing movements (vertical activity). […] Each mouse was then placed in the middle of an open field chamber (42×42 cm acrylic animal cages, AccuScan Instruments) and locomotion was recorded for 10 min. The infrared light beam sensors were connected to a computer that recorded animal position every millisecond. […] The total number of squares crossed by each mouse was recorded and average horizontal and vertical activities was determined for each group of mice. […]

These results are taken from patent publication US10583119B2, “Compounds, compositions and methods for making the same” (Signum Biosciences, Inc., priority 2008, dated 2020).

`CCCCCCCCCCCCCCCCCCCC(=O)NCCc1c[nH]c2ccc(O)cc12` [Compound I-63, N-(2-(5-hydroxy-1H-indol-3-yl)ethyl)icosanamide]: the 50% inhibitory concentration (IC50) in test [1] was less than 10 µM. Moreover, the “reduction in phosphorylation of tau compared to control” value is on record as not below 70% with phosphorylated Tau (four weeks), more than 50% in the test on phosphorylated Tau (three weeks) and less than 40% in the test with phosphorylated Tau (two weeks). For the same compound, the horizontal activity entry in test [2] is reported as “increase”.

One may read the IC50 as the concentration that inhibits the measured activity by half.
